Measured values: patent US20050002879A1, “External skin compositions” (priority 2001, published 2005)

Columns and labels:
Assay type in all cases: cell-based
[1] = system: Human keratinocytes; assay: Test Example 3: hyaluronic acid production promotion test in human keratinocytes (â-carotene with or without NAG); settings: â-carotene 10 mmol/L; for amount of hyaluronic acid: n=3, 24 hours
Method: (§1) Human keratinocytes (manufactured by Kurabo Industries, Ltd.) were seeded in a 24-well plate, cultured to confluence in a growth medium, and then 5 mmol/L of N-acetylglucosamine, 0.0001% of retinyl palmitate, 0.0001% of retinyl palmitate+5 mmol/L of N-acetylglucosamine, 1.0 mmol/L of retinoic acid, or 1.0 mmol/L of retinoic acid+5 mmol/L of N-acetylglucosamine were added, respectively. 24 hours after the addition, hyaluronic acid released into the medium was determined. The determination of hyaluronic acid was conducted using a commercially available hyaluronic acid determination kit (manufactured by Chugai Diagnostics Science).
Hyaluronic Acid Production Promotion Test to Human Keratinocytes)
In the same manner as in Test Example 1, the test was conducted and the amount of hyaluronic acid was determined (n=3). As the test substance, 10 mmol/L of â-carotene (hereinafter referred to as âCAR), NAG, and NAG+âCAR were used. The results are shown below and in FIG. 2.

[2] = system: Human keratinocytes; assay: Test Example 1: hyaluronic acid production test in human normal keratinocytes; settings: N-acetylglucosamine 5 mmol/L, retinyl palmitate 0.0001%, retinoic acid 1.0 mmol/L; for production of hyaluronic acid increased, times as compared with the no-addition group: 24 hours; for Hyaluronic acid production promotion ratio (% ± S.D.): % of hyaluronic acid in medium without test substance, 24 hours after addition
Method: Hyaluronic Acid Production Test to Human Normal Keratinocytes)
as §1
The effects of test substances were defined as percentage (%) of the amount of hyaluronic acid in a cultured medium without a test substance.

[3] = system: Human keratinocytes; assay: Test Example 2: hyaluronic acid production test in human keratinocytes (retinoids with or without NAG); settings: RA 1 mmol/L, ROH 1 mmol/L, RPal 0.001%, RAce 0.001%, NAG 5 mmol/L; for amount of hyaluronic acid released into the medium: n=3, 24 hours
Method: as §1
Hyaluronic Acid Production Test to Human Keratinocytes
In the same manner as in Test Example 1, the test was conducted (n=3). As the test substance, 1 mmol/L of retinoic acid (hereinafter referred to as RA), 1 mmol/L of retinol (hereinafter referred to as ROH), 0.001% of retinyl palmitate (hereinafter referred to as RPal) and 0.001% of retinyl acetate (hereinafter referred to as RAce) were used, and the determination was conducted with respect to the case where 5 mmol/L of N-acetylglucosamine (hereinafter referred to as NAG) and each of the above test substances were simultaneously added. The results are shown below and in FIG. 1.

SMILES | amount of hyaluronic acid [1] [ig/well] | production of hyaluronic acid increased, times as compared with the no-addition group [1] [times] | production of hyaluronic acid increased, times as compared with the no-addition group [2] [times] | Hyaluronic acid production promotion ratio (% ± S.D.) [2] [%] | production of hyaluronic acid increased, times as compared with the no-addition group [3] [times] | amount of hyaluronic acid released into the medium [3] [ig/well]
CC1=CCCC(C)(C)C1/C=C/C(C)=C/C=C/C(C)=C/C=C/C=C(C)/C=C/C=C(C)/C=C/C1=C(C)CCCC1(C)C (centres unmarked) [â-carotene] | 0.16 | 1.1 |  |  |  | 
CC(=O)N[C@H]1C(O)O[C@H](CO)[C@@H](O)[C@@H]1O (some centres unmarked) [N-acetylglucosamine] | 0.18 | 1.3 | 1.55 | 155 ± 11.8 | 1.1 | 0.12
CC(=O)OC/C=C(C)/C=C/C=C(C)/C=C/C1=C(C)CCCC1(C)C [retinyl acetate] |  |  |  |  | 1.6 | 0.18
CC1=C(/C=C/C(C)=C/C=C/C(C)=C/C(=O)O)C(C)(C)CCC1 [retinoic acid, reference compound] |  |  | 2.5 | 250 ± 20.8 | 3.4 | 0.37
CC1=C(/C=C/C(C)=C/C=C/C(C)=C/CO)C(C)(C)CCC1 [retinol] |  |  |  |  | 1.4 | 0.15
CCCCCCCCCCCCCCCC(=O)OC/C=C(C)/C=C/C=C(C)/C=C/C1=C(C)CCCC1(C)C [retinyl palmitate] |  |  | 1.23 | 123 ± 16.4 | 2.0 | 0.22
